According to paper PMC4041448 (2014):

Legend:
[1] = test system: RNA hairpin with six 5'CUG/3'GUC internal loops (RNA, repeat) GGGAGAGGGUUUAAUCUGCUGCUGCUGCUGCUGUACGAAAGUACUGCUGCUGCUGCUGCUGAUUGGAUCCGCAAGG; test: competition dialysis; settings: 110 mM KCl, 2 mM MgCl2, 2 mM CaCl2, 8 mM Na phosphate; 1 mM EDTA, pH 7.0, 20–22°C; 1 μM ligand, 1.33 μM RNA; compared with MBNL1 protein
[2] = test system: A-G RNA hairpin (5'CNG/3'GNC panel) (RNA, mismatch bulge abasic) GGGAGAGGGUUUAAUCAGUACGAAAGUACGGAUUGGAUCCGCAAGG; test: competition dialysis; settings: 110 mM KCl, 2 mM MgCl2, 2 mM CaCl2, 8 mM Na phosphate; 1 mM EDTA, pH 7.0, 20–22°C; 1 μM ligand, 1.56 μM RNA; bound ligand concentration
[3] = test system: Cy3-(CUG)10 RNA (RNA, repeat) CUGCUGCUGCUGCUGCUGCUGCUGCUGCUG; test: fluorescence titration (Cy3 emission); settings: HEPES-buffered saline; 0.5% DMSO, 0.005% Tween-20; one-site fit
[4] = test system: U·U RNA hairpin (5'CNG/3'GNC panel) (RNA, mismatch bulge abasic) GGGAGAGGGUUUAAUCUGUACGAAAGUACUGAUUGGAUCCGCAAGG; test: competition dialysis; settings: 110 mM KCl, 2 mM MgCl2, 2 mM CaCl2, 8 mM Na phosphate; 1 mM EDTA, pH 7.0, 20–22°C; 1 μM ligand, 1.56 μM RNA; bound ligand concentration
[5] = test system: no loop RNA (RNA, hairpin) GGGAGAGGGUUUAAUCAGUACGAAAGUACUGAUUGGAUCCGCAAGG; test: competition dialysis; settings: 110 mM KCl, 2 mM MgCl2, 2 mM CaCl2, 8 mM Na phosphate; 1 mM EDTA, pH 7.0, 20–22°C; 1 μM ligand, 1.56 μM RNA; bound ligand concentration

SMILES	binding [1]	Bound Dilomofungin (Cb) [2]	KD [3]	binding [4]	Bound Dilomofungin (Cb) [5]
COC(=O)c1ccc(O)c2nc3c(C=O)c(O)c(-c4c(O)c(C=O)c5nc6c(O)ccc(C(=O)OC)c6nc5c4O)c(O)c3nc12	yes	77.8 ± 33 nM	606 ± 300 nM	yes	228 ± 77 nM
COC(=O)c1ccc(O)c2nc3c(C=O)c(O)cc(O)c3nc12	yes	–	998 ± 180 nM	yes	–
